US6313114A, “3,4-Dihydro-2H-benzo[1,4]oxazinyl-methyl)-[3-(1H-indol-3yl)-alkyl]- amines” (American Home Products Corp, priority 1999, dated 2001)

Legend:
serotonin transporter = biological target: T1, serotonin transporter (Rattus norvegicus, UniProt P31652); assay: 3H-paroxetine binding to serotonin transporter in rat frontal cortical membranes; design: species or system male Sprague-Dawley rats
T1 construct: frontal cortical membranes prepared from male Sprague-Dawley rats; from tissue; host or cells: frontal cortical membranes of male Sprague-Dawley rats
T1 sequence (P31652 whole entry): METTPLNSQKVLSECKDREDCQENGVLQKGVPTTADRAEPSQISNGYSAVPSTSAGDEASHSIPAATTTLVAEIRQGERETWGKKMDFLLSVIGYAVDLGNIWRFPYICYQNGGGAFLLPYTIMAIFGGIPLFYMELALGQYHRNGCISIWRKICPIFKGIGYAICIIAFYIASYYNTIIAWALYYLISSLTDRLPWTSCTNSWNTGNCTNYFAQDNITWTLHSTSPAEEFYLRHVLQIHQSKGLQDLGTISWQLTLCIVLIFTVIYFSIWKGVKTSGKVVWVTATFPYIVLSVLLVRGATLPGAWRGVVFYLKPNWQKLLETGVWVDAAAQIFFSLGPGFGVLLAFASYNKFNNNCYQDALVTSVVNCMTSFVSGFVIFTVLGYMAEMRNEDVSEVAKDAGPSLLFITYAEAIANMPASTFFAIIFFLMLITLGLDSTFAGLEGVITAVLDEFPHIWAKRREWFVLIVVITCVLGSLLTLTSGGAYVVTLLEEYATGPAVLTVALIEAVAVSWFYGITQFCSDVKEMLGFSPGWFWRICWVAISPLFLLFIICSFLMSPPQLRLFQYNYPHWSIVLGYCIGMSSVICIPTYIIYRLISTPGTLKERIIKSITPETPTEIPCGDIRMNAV
Method: Briefly, frontal cortical membranes prepared from male Sprague-Dawley rats were incubated with ^3 H-paroxetine (0.1 nM) for 60 min at 25° C. All tubes also contained either vehicle, test compound (one to eight concentrations), or a saturating concentration of fluoxetine (10 μM) to define specific binding. All reactions were terminated by the addition of ice cold Tris buffer followed by rapid filtration using a Tom Tech filtration device to separate bound from free ^3 H-paroxetine.

human 5-HT1A receptor = biological target: T2, human 5-HT1A receptor (Homo sapiens, UniProt P08908); assay: [3H]8-OH-DPAT competition binding to cloned human 5-HT1A receptor (CHO cell membranes); settings: [3H]8-OH-DPAT 1.5 nM; CHO cells expressing human 5-HT1A
T2 construct: expressed in transfected cells
T2 sequence (P08908 1-422): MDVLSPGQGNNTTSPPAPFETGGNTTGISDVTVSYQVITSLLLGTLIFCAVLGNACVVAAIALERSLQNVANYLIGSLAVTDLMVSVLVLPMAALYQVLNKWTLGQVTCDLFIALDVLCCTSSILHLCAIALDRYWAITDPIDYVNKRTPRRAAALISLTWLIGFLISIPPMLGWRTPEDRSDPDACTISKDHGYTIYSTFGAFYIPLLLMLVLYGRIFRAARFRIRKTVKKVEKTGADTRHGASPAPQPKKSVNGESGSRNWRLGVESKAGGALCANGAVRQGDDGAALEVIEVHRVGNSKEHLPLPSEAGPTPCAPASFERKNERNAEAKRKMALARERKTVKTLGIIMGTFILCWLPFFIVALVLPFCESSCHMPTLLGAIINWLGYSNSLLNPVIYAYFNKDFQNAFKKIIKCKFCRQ
Method: A stable Chinese hamster ovary cell line expressing the human 5-HT1A receptor subtype (5H-HT1A .CHO cells) was employed throughout this procedure. Cells were maintained in DMEM supplemented with 10% fetal calf serum, non-essential amino acids and penicillin/ streptomycin.
Cells were grown to 95-100% confluency as a monolayer before membranes were harvested for binding studies. Cells were gently scraped from the culture plates, transferred to centrifuge tubes, and washed twice by centrifugation (at 2000 rpm for 10 min., 4° C.) in buffer (50 mM Tris; pH 7.5). The resulting pellets were aliquoted and stored at -80° C. until needed. On the day of assay, the cells were thawed on ice, and resuspended in buffer. Studies were conducted using [^3 H]8-OH-DPAT as the radioligand. The binding assay was performed in 96 well microtiter plates in a final total volume of 250 μL of buffer. […] Non-specific binding was determined in the presence of 10 μM 5HT. Saturation analysis was conducted by using [^3 H]8-OH-DPAT at concentrations ranging from 0.3-30 nM. Following a 30 minute incubation at room temperature, the reaction was terminated by the addition of ice cold buffer and rapid filtration using a M-96 Brandel Cell Harvester through a GF/B filter presoaked for 30 minutes in 0.5% polyethyleneimine.

## c1ccc(CN2CC(CNCCCCc3c[nH]c4ccccc34)Oc3ccccc32)cc1 (centres unmarked) [Example 4, (4-Benzyl-3,4-dihydro-2H-benzo[1,4]oxazin-2ylmethyl)-[3-(1H-indo-3-yl)-butyl]-amine]
Serotonin transporter
  Ki: 81 nM
Human 5-HT1A receptor
  Ki: 76.1 nM
